Assay results taken from patent US20080207632A1, “PROTEIN KINASE INHIBITORS” (SUPERGEN, INC., priority 2006, published 2008).
Like-named read-outs stand apart in the source and are kept apart here.

What was measured:
[1] = test system: MDA-MB-231 breast carcinoma cells; test: cell proliferation assay (Cell-Titer-Glo), MDA-MB-231; type: cell-based; conditions: Homo sapiens
Method: Cell culture-based assays can be used to evaluate the ability of compounds of the invention to inhibit one or more cellular activities, such as cancer cell growth and/or survival. Numerous cancer cell lines can be obtained from the American Type Culture Collection (ATCC) and other sources. Briefly, cells are seeded into 96-well, tissue-culture treated, opaque white plates (Thermo Electron, Vantaa, Finland), at between 5000 and 10000 cells per well, depending on the speed of cell proliferation, in 100 μl of appropriate growth medium (determined by the ATCC). Cells are then exposed to the appropriate concentration of drug or an equal amount of DMSO (drug diluent) and allowed to grow in its presence for 96 hours. Following this, 100 μl of Cell-Titer-Glo reagent (Promega, Inc., Madison, Wis.) is added to each well. Plates are then shaken for 2 minutes at room temperature to allow for cell lysis and incubated for 10 minutes to stabilize the luminescent signal. Similar to the Kinase-Glo assay reagent from Promega, this reagent contains both luciferase enzyme and its substrate luciferin. Luciferase, activated by ATP in the cell lysate, catalyzes the conversion of luciferin to oxyluciferin, a reaction which produces light. The amount of light produced is proportionate to the amount of ATP in the cell lysate, which is itself proportional to cell number and gives an index of cellular proliferation.
Compound 1-1 and Compound 2-11 were tested in a cell proliferation assay to determine potency in a cell-based assay format. Briefly, MDA-MB-231 breast carcinoma cells were inoculated onto 96-well plates and incubated in the presence of compounds for 96 hours. Following incubation, cells were lysed and ATP content used as a surrogate for cell number, using the Cell-Titer-Glo Luminescent Cell Viability Assay Kit (Promega Corp.). IC50 values, representing the concentration required to reduce cell number to 50% of untreated controls, were determined to be 20 uM for Compound 1-1 and 10 uM for Compound 2-11.

[2] = test system: HT-29 human colon cancer cells; test: HT-29 xenograft study in mice (Example 19); type: in vivo; conditions: 25 mg/kg intraperitoneally, q.d.x 5 for two weeks
Method: In order to evaluate the effectiveness of compound 1-1 against tumor cells in a living system, a xenograft study was performed in mice. 1×10^7 HT-29 human colon cancer cells were injected subcutaneously into 16 Nu/Nu athymic nude mice (Charles River Laboratories, Wilmington, Mass.). Tumor volume was measured according to the formula ((Width)^2*Length)/2. Tumors were allowed to grow to approximately 100 mm^3 in volume (Day 0), at which point mice were randomized to two groups: Eight mice were treated with 25 mg/kg compound 1-1, while the other eight were given an equal volume of drug vehicle. For this study, the drug vehicle used was 60% propylene glycol, 30% polyethylene glycol 300, 10% ethanol with 150 mg/mL 2-hydroxypropyl-beta-cyclodextrin. Each mouse received 0.1 mL of drug or vehicle intraperitoneally on a q.d.x 5 schedule for two weeks, with two days rest between cycles.

[3] = test system: HepG2 (hepatocellular carcinoma); test: in vitro cytotoxicity assay (Cell-Titer-Glo), HepG2; type: cell-based; conditions: Homo sapiens, Table 10, 96 hours, read-out: IC50 HepG2 (inhibit cell growth to 50% of untreated)
[4] = test system: Granta-4 lymphoma cell line; test: lymphoma cell number reduction, Granta-4; type: cell-based; conditions: 48 hours; read-out: IC50 Values Granta-4, single agent
Method: New IC50 values were calculated for the second agent in an effort to determine whether or not pretreatment with one compound would increase sensitivity to the other. As set forth in the table below, compound 2-3 pretreatment led to an increased sensitivity to Taxol®, however Taxol® pretreatment appeared to be […] to compound 2-3 in this assay.

[5] = test system: HT-29 Colorectal Xenograft; test: HT-29 colorectal xenograft, route of administration (Example 70); type: in vivo, mice; conditions: intraperitoneal ALZET osmotic pump, 25 mg/kg/day over 14 days
Method: This study examined the effect of route of administration on tumor growth inhibition. Tumor bearing mice were treated with compound 2-3 intraperitoneally (ALZET osmotic pumps, delivering 25 mg/kg/day over 14 days) or intravenously (80 mg/kg/d on Days 1, 4 and 7). Because of difficulty in maintaining tail vein patency, this group of mice received subsequent dose intraperitoneally on Days 10, 11, 12 and 15. Compound 2-3 delivered continuously via the osmotic pump decreased tumor growth rate to 10.75 mm^3/d, compared with vehicle-treated tumor growth rate of 28.28 mm^3/d (see FIG. 5). Treated/Control ratio was 38%. […] However, after dosing was switched to IP, this effect was lost.

Panc-1 cells = test: hollow fiber xenograft model (MTT), Panc-1; type: in vivo, athymic nude mice; conditions: Panc-1 fibers implanted SC
Method: (§1) Compound 2-3 was tested against three tumor types in athymic nude mice using the hollow fiber xenograft model. After incubation and growth overnight, drug-permeable fibers containing tumor cells were surgically implanted either intraperitoneally (IP) or subcutaneously (SC) and allowed to grow for 24-hours. After treatment with compound 2-3, fibers were removed and tumor cell growth was measured using the MTT assay. A549, Panc-1 or HT-29 cells were injected into separate fibers and each mouse received a fiber containing each cell line both SC and IP totaling six fibers per mouse.

HT-29 cells = test: hollow fiber xenograft model (MTT), HT-29; type: in vivo, athymic nude mice; conditions: HT-29 fibers implanted IP
Method: as §1

DU145 carcinoma = test: DU145 prostate cancer xenograft; type: in vivo
Method: In this study, DU145 carcinoma model was used to evaluate the anti-tumor efficacy of compound 2-3. The murine xenograft model was established by inoculating 2×10^6 cells into each Balb/c nude mouse via s.c. injection. When the average tumor size reached ˜100 mm^3, the mice were randomly divided into different experimental groups based on tumor size. Subcutaneous administration of compound 2-3 was conducted via an Alzet osmotic pump. On day 30 a second cycle of dosing was initiated.

Row | Compound | IC50 ([1]; Example 65, 96 hours, read-out: IC50 (reduce cell number to 50% of untreated controls)) [µM] | IC50 ([1]; Table 10, 96 hours, read-out: IC50 MDA-MB-231 (inhibit cell growth to 50% of untreated)) [µM] | toxicity through the duration of the study [2] | tumor growth inhibition in vivo [2] | IC50 [3] [µM] | IC50 [4] [nM] | Treated/Control ratio [5] [%] | tumor growth rate [5] [mm^3/d] | tumor cell growth in fibers (Panc-1 cells; 20 mg/kg intravenous) [% growth] | tumor cell growth in fibers (Panc-1 cells; 40 mg/kg intravenous) [% growth] | tumor cell growth in fibers (HT-29 cells; 20 mg/kg intravenous) [%] | tumor cell growth in fibers (HT-29 cells; 40 mg/kg intravenous) [%] | tumor growth (DU145 carcinoma; Alzet osmotic pump subcutaneous or intravenous, second cycle on day 30) | tolerability of repeat dose (weight loss) (DU145 carcinoma; repeat dose in mice) | efficacy by route of administration (DU145 carcinoma; subcutaneous versus intravenous)
1 | CC(=O)NS(=O)(=O)c1ccc(NC(=S)N2CCN(c3ncnc4[nH]c5cc(C(F)(F)F)c(Cl)cc5c34)CC2)cc1 [Compound 1-1, 4-(6-Chloro-7-trifluoromethyl-9H-pyrimido[4,5-b]indol-4-yl)-piperazine-1-carbothioic acid (4-acetylsulfamoyl-phenyl)-amide] | 20 | 20.2 | No noticeable toxicity | effective for inhibiting tumor growth in vivo | 7.83 |  |  |  |  |  |  |  |  |  | 
2 | COc1cc2[nH]c3ncnc(N4CCN(C(=S)Nc5ccc(S(=O)(=O)Nc6ccc(F)cc6)cc5)CC4)c3c2cc1OC [Compound 2-3, 4-(6,7-dimethoxy-9H-pyrimido[4,5-b]indol-4-yl)-N-(4-(N-(4-fluorophenyl)sulfamoyl)phenyl)piperazine-1-carbothioamide] |  |  |  |  |  | 2040 | 38 | 10.75 | 58.7 | 60.9 | 53.8 | 73.4 | led to a reduction in tumor growth | well tolerated | more effective when administered subcutaneously than intravenously
